Calls of active or inactive are those of the source. The calls are words filed in the database; no cut-off is given here.

In data set [1] the test system is Plasmodium falciparum. Briefly: microbe, parasite or virus in culture. Conditions: Dd2, 72 h.
Description: Antimalarial activity against wild-type Plasmodium falciparum Dd2 assessed as reduction in parasitemia incubated for 72 hrs by SYBR green I dye based analysis
A short description of data set [2]: Volume of distribution at steady state in Balb/C mouse at 3 mg/kg, iv. The data set is classed as ADME, organism-based. Conditions: in vivo, read-out: Vdss.
The nature of data set [3]: Half life in Balb/C mouse at 3 mg/kg, iv. Format: ADME, organism-based. Conditions: in vivo.
Data set [4] relates to Plasmodium falciparum. Nature of the data set: Antimalarial activity against Plasmodium falciparum harboring CARL I1139K mutation assessed as reduction in parasitemia incubated for 72 hrs by SYBR green I dye based analysis. The data set is classed as functional, organism-based.
The test system of data set [5] is Plasmodium falciparum. Nature of the data set: Antimalarial activity against Plasmodium falciparum harboring AcAS A597V mutation assessed as reduction in parasitemia incubated for 72 hrs by SYBR green I dye based analysis. Format: functional, organism-based.
The test system of data set [6] is Plasmodium falciparum. Nature of the data set: Antimalarial activity against Plasmodium falciparum harboring PI4K S1320L mutation assessed as reduction in parasitemia incubated for 72 hrs by SYBR green I dye based analysis. The data set is classed as functional, organism-based.
In data set [7] the test system is Plasmodium falciparum. Nature of the data set: Antiplasmodial activity against drug-sensitive Plasmodium falciparum 3D7 at ring stage infected in A+ erythrocytes assessed as parasite growth reduction incubated for 72 hrs by SYBR Green I dye based analysis. The conditions noted are these: 3D7, Erythrocyte. Format: functional, organism-based.
In data set [8] the test system is Plasmodium falciparum. Briefly: Resistance index, ratio of EC50 for multidrug-resistant Plasmodium falciparum Dd2 at ring stage infected in A+ erythrocytes to EC50 for drug-sensitive Plasmodium falciparum 3D7 at ring stage infected in A+ erythrocytes. Format: organism-based. Conditions: human.
A short description of data set [9]: Selectivity index, ratio of EC50 for human HepG2 cells to EC50 for multidrug-resistant Plasmodium falciparum Dd2 at ring stage infected in A+ erythrocytes. Format: toxicity, cell-based. Conditions: read-out: Ratio EC50.
Data set [10] in a line: (§1) Cytotoxicity against human MCF7 cells assessed as reduction in cell viability incubated for 48 hrs by MTS assay. Format: toxicity, cell-based. The conditions noted are these: human, MCF7 cells. (Tetrazolium assays rely on reduction of a dye to a coloured formazan, in cell work by metabolically active cells.)
Data set [11] in a line: Selectivity index, ratio of EC50 for human MCF7 cells to EC50 for multidrug-resistant Plasmodium falciparum Dd2 at ring stage infected in A+ erythrocytes. Conditions: read-out: Ratio EC50. The data set is classed as toxicity, cell-based.
Data set [12] can be described thus: (§2) Cytotoxicity against human HepG2 cells assessed as reduction in cell viability incubated for 48 hrs by MTS assay. The data set is classed as toxicity, cell-based. Conditions: human, HepG2 cells.
Data set [13] has as its system Plasmodium falciparum. Briefly: Antiplasmodial activity against multidrug-resistant Plasmodium falciparum Dd2 at ring stage infected in A+ erythrocytes assessed as parasite growth reduction incubated for 72 hrs by SYBR Green I dye based analysis. Conditions: Dd2, Erythrocyte. The data set is classed as functional, organism-based.
The test system of data set [14] is Plasmodium falciparum. Briefly: Antimalarial activity against artemisinin-sensitive synchronized early ring stage Plasmodium falciparum IPC 5188 (MRA-1239) clinical isolate assessed as decrease in parasite survival at ring stage at 10 times EC50 treated for 48 hrs followed by compound removal measured after 72 hrs by geimsa staining based microscopy. Format: functional, organism-based.

For data set [15], the system named is Plasmodium falciparum. Briefly: Antimalarial activity against synchronous blood-stage Plasmodium falciparum 3D7 assessed as log of parasite reduction ratio at 10 times EC50 treated every 24 hrs for 120 hrs followed by compound washout and subsequent addition of RBCs measured after 21 days. The data set is classed as functional.
Data set [16] concerns Plasmodium falciparum. Briefly: Antimalarial activity against synchronous blood-stage Plasmodium falciparum 3D7 assessed as parasite clearance time at 10 times EC50 treated every 24 hrs for 120 hrs followed by compound washout and subsequent addition of RBCs measured after 21 days by parasite reduction ratio assay. The data set is classed as functional.
The subject of data set [17] is Plasmodium falciparum. Briefly: Antimalarial activity against synchronous blood-stage Plasmodium falciparum 3D7 assessed as duration of lag phase at 10 times EC50 treated every 24 hrs for 120 hrs followed by compound washout and subsequent addition of RBCs measured after 21 days by parasite reduction ratio assay. Format: functional.
The test system of data set [18] is Plasmodium falciparum. Nature of the data set: Antimalarial activity against artemisinin-resistant synchronized early ring stage Plasmodium falciparum IPC 5202 (MRA-1240) clinical isolate assessed as decrease in parasite survival at ring stage at 10 times EC50 treated for 6 hrs followed by compound removal measured after 72 hrs by geimsa staining based microscopy. Format: functional, organism-based.

The subject of data set [19] is Plasmodium falciparum. Briefly: Antimalarial activity against artemisinin/piperaquine-resistant synchronized early ring stage Plasmodium falciparum IPC 6261 (MRA-1284) clinical isolate assessed as decrease in parasite survival at ring stage at 10 times EC50 treated for 6 hrs followed by compound removal measured after 72 hrs by geimsa staining based microscopy. Format: functional, organism-based.

Data set [20] has as its system Plasmodium falciparum. Briefly: Antimalarial activity against artemisinin/piperaquine-sensitive synchronized early ring stage Plasmodium falciparum IPC 5188 (MRA-1239) clinical isolate assessed as decrease in parasite survival at ring stage at 10 times EC50 treated for 6 to 48 hrs followed by compound removal measured after 72 hrs by geimsa staining based microscopy. Format: functional, organism-based.

The subject of data set [21] is Plasmodium falciparum. Briefly: Antimalarial activity against artemisinin-resistant synchronized early ring stage Plasmodium falciparum IPC 5202 (MRA-1240) clinical isolate assessed as decrease in parasite survival at ring stage at 10 times EC50 treated for 48 hrs followed by compound removal measured after 72 hrs by geimsa staining based microscopy. Format: functional, organism-based.

The test system of data set [22] is Plasmodium falciparum. Nature of the data set: Antimalarial activity against synchronized early ring stage Plasmodium falciparum 3D7 (MRA-152) clinical isolate assessed as decrease in parasite survival at ring stage at 10 times EC50 treated for 6 hrs followed by compound removal measured after 72 hrs by geimsa staining based microscopy. Format: functional, organism-based.

The subject of data set [23] is Plasmodium falciparum. Briefly: Antimalarial activity against artemisinin/piperaquine-resistant synchronized early ring stage Plasmodium falciparum IPC 6261 (MRA-1284) clinical isolate assessed as decrease in parasite survival at ring stage at 10 times EC50 treated for 6 to 48 hrs followed by compound removal measured after 72 hrs by geimsa staining based microscopy. The data set is classed as functional, organism-based.

Data set [24] in a line: Metabolic stability in mouse liver microsomes assessed as intrinsic clearance. Format: ADME, Liver cells. For orientation: Liver microsomes are a subcellular fraction often used to study metabolism.
The subject of data set [25] is Plasmodium falciparum. Nature of the data set: Antimalarial activity against synchronized early ring stage Plasmodium falciparum 3D7 (MRA-152) clinical isolate assessed as decrease in parasite survival at ring stage at 10 times EC50 treated for 48 hrs followed by compound removal measured after 72 hrs by geimsa staining based microscopy. The data set is classed as functional, organism-based.

In data set [26] the test system is MCF7. The description is as §1. The data set is classed as toxicity, cell-based. Conditions: mcf7.
In data set [27] the test system is Plasmodium falciparum. Briefly: Antimalarial activity against artemisinin-resistant/piperaquine-sensitive synchronized early ring stage Plasmodium falciparum IPC 5202 (MRA-1240) clinical isolate assessed as decrease in parasite survival at ring stage at 10 times EC50 treated for 6 to 48 hrs followed by compound removal measured after 72 hrs by geimsa staining based microscopy. The data set is classed as functional, organism-based.

Data set [28] has as its system Plasmodium falciparum. Briefly: Antimalarial activity against artemisinin-sensitive synchronized early ring stage Plasmodium falciparum IPC 5188 (MRA-1239) clinical isolate assessed as decrease in parasite survival at ring stage at 10 times EC50 treated for 6 hrs followed by compound removal measured after 72 hrs by geimsa staining based microscopy. Format: functional, organism-based.

In data set [29] the test system is Plasmodium falciparum. Briefly: Antimalarial activity against synchronized early ring stage Plasmodium falciparum 3D7 (MRA-152) clinical isolate assessed as decrease in parasite survival at ring stage at 10 times EC50 treated for 6 to 48 hrs followed by compound removal measured after 72 hrs by geimsa staining based microscopy. The data set is classed as functional, organism-based.

Data set [30] has as its system Plasmodium falciparum. Nature of the data set: Antimalarial activity against artemisinin/piperaquine-resistant synchronized early ring stage Plasmodium falciparum IPC 6261 (MRA-1284) clinical isolate assessed as decrease in parasite survival at ring stage at 10 times EC50 treated for 48 hrs followed by compound removal measured after 72 hrs by geimsa staining based microscopy. Format: functional, organism-based.

Data set [31] in a line: Metabolic stability in mouse liver microsomes assessed as half life. The data set is classed as ADME, Liver cells.
Data set [32] deals with HepG2. The description is as §2. Format: toxicity, cell-based. Conditions: hepg2.

As usually defined, the EC50 is the concentration giving half of the maximal effect. As usually defined, the half-life is how long it takes for the measured level to halve. The low end stands for rapid decline, the high end for slow decline. Take `CC1(C)c2nc(-c3ccc(F)cc3)c(Nc3ccc(Cl)cc3)n2CCN1C(=O)CN`: the concentration for a half-maximal effect (EC50) was determined as 1.8 nM in data set [1], 1380 nM in [4], 1.1 nM in [5] and 1.9 nM in data set [6]. Besides, the Vd in data set [2] was 11.8 L/kg. In data set [3], this molecule had a half-life of 8.9 h.

With `CCN1CCN(Cc2ccc(NC(=O)c3cc(C)cc(NC(=O)c4cncc(-c5cccs5)c4)c3)cc2C(F)(F)F)CC1`, the EC50 in data set [7] stood at 235 nM; in data set [13], 372 nM. For the same molecule, the “Ratio EC50” value in data set [8] came to 1.6. Further, the results for the selectivity ratio in [9] and in [11] were 8.6 and 14, respectively. The half-maximal effective concentration (EC50) at 48 h in data set [10] stood at 5220 nM; in data set [12], 3200 nM.

With `CCN1CCN(Cc2ccc(NC(=O)c3cc(Cl)cc(NC(=O)c4cncc(-c5ccc(C#N)cc5)c4)c3)cc2C(F)(F)F)CC1`, the result in data set [14], in [21], in data set [25] and in data set [30] was Active. Also, the “log(activity)” value in [15] worked out at 5.12. The T99.9% in [16] was under 32 h. The Time in [17] is 0 h. Besides, the concentration giving a half-maximal response (EC50) in data set [7] was 36 nM; in data set [20] it was 43.9 nM; in data set [23], 64.9 nM; in [26], 2190 nM; in data set [27], 41.5 nM; in data set [29], 53.5 nM. Further, the EC50 amounted to 1460 nM in [32] and 36 nM in data set [13]. In [8], the “Ratio EC50” value worked out at 1. Further, the outcome in data set [18], in data set [19], in data set [22] and in [28] was inactive. Also, the selectivity ratio in data set [9] came out at 41; in data set [11], 61. In addition, in data set [24], the intrinsic clearance turned out to be 16 µL/min/mg. Further, in [31], the t1/2 worked out at 0.708 h.

For the origin of these results see ChEMBL document CHEMBL5537177, “Discovery of Potent Antimalarial Type II Kinase Inhibitors with Selectivity over Human Kinases” (J Med Chem, 2024).
